# Test results published in patent US20180353403A1, “SKIN-WHITENING COSMETIC COMPOSITION CONTAINING ROSEMARY-DERIVED VERBENONE AS ACTIVE INGREDIENT” (Jeju National University Industry-Academic Cooperation …, priority 2014, published 2018).
# Legend:
# mushroom tyrosinase = experiment: Mushroom tyrosinase inhibition assay; assay type: biochemical
# Procedure: 60 μl of a 1 M phosphate buffer (pH 6.8), 10 μl of a sample solution, and 20 μl of 500 U/ml mushroom tyrosinase were sequentially added, and then incubated at room temperature for 5 minutes. After incubation, 60 μl of an aqueous solution containing 1 mM L-tyrosine was added to initiate a reaction. The reaction was performed at 37° C. for 30 minutes, and absorbance was measured at 490 nm. Mushroom tyrosinase inhibition activity was calculated by the following equation.
# Mushroom tyrosinase inhibition activity (%)=(B−A)/A×100
# (§1) A: OD490 value of treated group
# B: OD490 value of blank control
# [1] = tested on: tyrosinase in B16F10 cells; experiment: Tyrosinase inhibition activity in B16F10 cells; assay type: cell-based, mouse; conditions: α-MSH for one day, then 0.625, 1.25 and 2.5 mM, measured after 24 and 48 hours (FIG. 3)
# Procedure: Cultured cells were harvested by adding […]. After harvesting, 500 μl of a cell lysis buffer (10 mM sodium phosphate buffer containing 1% Triton X-100 and 0.1 mM PMSF) was added to the harvested cells. To lyse the cells, sonication was performed on the cells and subsequently the cells were incubated on ice for 30 minutes. The lysed cells were centrifuged at 13000 rpm for 30 minutes, and the obtained cell lysate was used to measure tyrosinase activity.
# To evaluate the inhibitory efficacy of verbenone against tyrosinase in B16F10 mouse melanoma cells, B16F10 cells were treated with α-MSH for one day to increase tyrosinase. Then, the cells were treated with verbenone at concentrations of 0.625, 1.25 and 2.5 mM, respectively, and tyrosinase activity was measured after 24 and 48 hours, respectively.
# B 16F10 melanoma cells = experiment: Measurement of melanin content in B16F10 cells; assay type: cell-based, mouse
# Procedure: B 16F10 melanoma cells, obtained from mice, were used as melanin-producing cells. The cultured B 16F10 cells were treated with […] α-melanocyte-stimulating hormone (α-MSH) (a control group). After 1 day, 2.5, 1.25, 0.625 mM verbenone and 2 mM arbutin (a positive control group) were added to the cells, the cells were cultured for 1 day and 2 days, respectively (experimental groups). The cultured cells were washed twice with PBS and harvested by centrifugation at 1500 rpm for 5 minutes. 300 ill of 1 N NaOH containing 10% DMSO was added to the cell pellet and then incubated at 80° C. for 1 hour to dissolve melanin. Melanin content was calculated by the following equation.
# Melanin content (%)=A/B×100
# as §1
# B: OD490 value of non-treated group
# [2] = tested on: TRP-1, TRP-2, tyrosinase and MITF; experiment: Western blot of melanogenesis-related proteins in B16F10 cells; assay type: cell-based, mouse
# Procedure: After 24 hours, the cells were treated with verbenone at concentrations of 0.625, 1.25, and 2.5 mM, respectively, followed by culturing for 72 hours. The cultured cells were harvested and washed three times with PBS. Then, to lyse the cells, 500 μl of a lysis buffer was added to the cells and the cells were sonicated, followed by incubation for 30 minutes. After cell lysis, centrifugation was performed at 12,000 rpm and 4° C. for 30 minutes to obtain a supernatant. Protein concentration was quantified using bovine serum albumin (BSA) as a standard. Equivalent amounts of the denatured lysates were loaded onto a 12% sodium dodecyl sulfate-polyacrylamide gel, and electrophoresis was performed at 45 mA to separate proteins. After sodium dodecyl sulfate-polyacrylamide gel electrophoresis (SDS-PAGE), the separated proteins present in the gel were transferred onto a membrane at 150 V for 80 minutes. Then, blocking of the membrane was performed for overnight using TTBS (TBS+0.1% Tween 20) solution containing 5% skim milk. Primary antibodies against melanogenesis-related proteins and actin were prepared in a ratio of 1:1,000, and a primary antibody reaction was performed at room temperature for 3 hours. Anti-rabbit IgG and anti-mouse IgG were used as secondary antibodies and diluted 1:5,000. A secondary antibody reaction was performed at room temperature for 1 hour. […]
SMILES,"mushroom tyrosinase inhibition activity (mushroom tyrosinase; kojic acid control at 200, 400 or 800 μM (FIG. 2))",tyrosinase activity in B16F10 cells [1],mushroom tyrosinase inhibition activity (mushroom tyrosinase; 2.5 and 5 mM verbenone (FIG. 2)),"color of the cell pellet (B 16F10 melanoma cells; 20 nM α-MSH + 0.625, 1.25, 2.5 mM verbenone (FIG. 5))","change in melanin content in B 16F10 cells (B 16F10 melanoma cells; screen of six rosemary components, various concentrations, 72 hours, 490 nm, compared to arbutin-treated cells (FIG. 1))","melanin content in B16F10 cells (B 16F10 melanoma cells; α-MSH 24 hours, then 0.625, 1.25 and 2.5 mM, measured after 24 and 48 hours (FIG. 4))","expression levels of the melanogenesis-related proteins ([2]; 20 nM α-MSH for 24 hours, then 0.625, 1.25, 2.5 mM, western blotting (FIG. 6A))","expression levels of melanogenesis-related proteins TRP-1, TRP-2, tyrosinase and MITF ([2]; without α-MSH, 0.625, 1.25, 2.5 mM, 72 hours, western blotting (FIG. 6B))"
"O=c1cc(CO)occ1O [kojic acid, reference compound]",observed in a concentration-dependent manner,–,–,–,–,–,–,–
CC1=CC(=O)[C@@H]2C[C@H]1C2(C)C [verbenone],–,inhibited tyrosinase in B16F10 cells,no inhibitory effect was observed,weakened by verbenone in a concentration-dependent manner,most significantly decreased,reduced by verbenone in B16F10 cells in a concentration-dependent manner,reduced in the verbenone-treated group in a concentration-dependent manner,decreased by verbenone in a concentration-dependent manner
